Counter-ions that a name gives are not always drawn.
System: chronic fingernail biting
Assay: Treatment of a subject with chronic fingernail biting (Example 1)
Assay type: in vivo, human
Procedure: A subject presented with chronic fingernail biting. The subject was treated with 60 mg of tomoxetine hydrochloride, twice daily for 13 consecutive days. […] The patient's chronic fingernail biting behavior resumed upon termination of treatment with tomoxetine hydrochloride.

CNCC[C@@H](Oc1ccccc1C)c1ccccc1 [tomoxetine hydrochloride, (R)-(−)-N-methyl-3-(2-methylphenoxy)-3-phenylpropylamine]
chronic fingernail biting at final assessment (60 mg twice daily for 13 consecutive days, healthy appearing fingernails except for one finger): significant improvement
chronic fingernail biting behavior upon termination of treatment (after 60 mg twice daily for 13 consecutive days was stopped): resumed
